From ChEMBL document CHEMBL1136451, “Semi-synthetic glycopeptide antibacterials” (Bioorg Med Chem Lett, 2003) come the findings set out here.

Series [1] concerns Staphylococcus aureus. Put plainly: Antibacterial activity against Vancomycin resistant staphylococcus aureus (VRSA). It is filed as functional.
A short description of series [2]: Cmax (Tissue distribution) of compound was determined at a dose of 5 mg/kg in human. It counts as ADME, organism-based. More on the design: dose 5 mg/kg. As to conditions: in vivo.
Series [3] in a line: Half life of compound was determined in man with once daily dosing. It is filed as ADME. As to conditions: human.
In series [4] the test system is Enterococcus faecalis. Put plainly: Inhibitory activity of compound against VanA Enterococcus faecalis MGH-01. It counts as functional, organism-based.
In series [5] the test system is Staphylococcus aureus. Put plainly: Inhibitory activity of compound against Staphylococcus aureus ATCC 33591. It is filed as functional, organism-based.
For series [6], the system named is Streptococcus agalactiae. Briefly: Inhibitory activity of compound against Streptococcus agalactiae KPB-01. It is filed as functional, organism-based.
The test system of series [7] is Enterococcus sp. Put plainly: Antibacterial activity against Enterococcus species., VanA. It counts as functional.
Series [8] deals with Streptococcus pneumoniae. Put plainly: Antibacterial activity against Streptococcus pneumoniae. It counts as functional.
Series [9] relates to Staphylococcus aureus. Briefly: Antibacterial activity against Methicillin resistant staphylococcus aureus (MRSA). It is filed as functional.

For orientation: MIC means the lowest concentration found to suppress growth. The term Cmax denotes the maximum level reached in the sampled fluid or tissue. Usually half-life stands for the time needed for the level to fall by half in the phase considered. The low end stands for rapid decline, the high end for slow decline. By IC50 is commonly meant the midpoint of a concentration-inhibition curve. Higher therefore signals weaker potency. Usually MIC90 stands for the lowest concentration that inhibits either 90% of growth or 90% of the strains tested, depending on the study. Higher therefore signals lower susceptibility.

Converted amounts (≈) assume the structure as drawn.

In [1], `CCCCCCCCCCNCCN[C@@]1(C)C[C@H](O[C@H]2[C@H](Oc3c4cc5cc3Oc3ccc(cc3Cl)[C@@H](O)[C@]3(C)NC(=O)[C@H](NC(=O)[C@@H]5NC(=O)[C@H](CC(N)=O)NC(=O)[C@](C)(NC(=O)[C@@H](CC(C)C)NC)[C@H](O)c5ccc(c(Cl)c5)O4)c4ccc(O)c(c4)-c4c(O)cc(O)cc4[C@@H](C(=O)O)NC3=O)O[C@H](CO)[C@@H](O)[C@@H]2O)O[C@@H](C)C1O` (stereo not given in full) gave an MIC of 0.4 µg/mL (≈ 0.241 µM).

`CCCCCCCCCCNCCN[C@@]1(C)C[C@H](O[C@H]2[C@H](Oc3c4cc5cc3Oc3ccc(cc3Cl)[C@@H](O)[C@@H](NC(=O)[C@@H](CC(C)C)NC)C(=O)N[C@@H](CC(N)=O)C(=O)N[C@H]5C(=O)N[C@H]3C(=O)N[C@H](C(=O)N[C@H](C(=O)O)c5cc(O)c(CNCP(=O)(O)O)c(O)c5-c5cc3ccc5O)[C@H](O)c3ccc(c(Cl)c3)O4)O[C@H](CO)[C@@H](O)[C@@H]2O)O[C@@H](C)[C@H]1O` showed a Cmax in [2] of 45000 ng/mL. This compound also gave a half-life in [3] of 420 min.

Take `CCCCCCCCCCNCCN[C@@]1(C)C[C@H](O[C@H]2[C@H](Oc3c4cc5cc3Oc3ccc(cc3Cl)[C@@H](O)[C@@](C)(NC(=O)[C@@H](CC(C)C)NC)C(=O)N[C@@H](CC(N)=O)C(=O)N[C@H]5C(=O)N[C@H]3C(=O)N[C@H](C(=O)N[C@H](C(=O)O)c5cc(O)c(CNCP(=O)(O)O)c(O)c5-c5cc3ccc5O)[C@H](O)c3ccc(c(Cl)c3)O4)O[C@H](CO)[C@@H](O)[C@@H]2O)O[C@@H](C)C1O` (stereo not given in full) [listing 1 of 2 here]: the IC50 in series [4] was 10 µg/mL (≈ 5.65 µM); in series [5] it was 23 µg/mL (≈ 13 µM); in series [6] it was 15 µg/mL (≈ 8.48 µM).

On to `CCCCCCCCCCNCCN[C@@]1(C)C[C@H](O[C@H]2[C@H](Oc3c4cc5cc3Oc3ccc(cc3Cl)[C@@H](O)[C@@](C)(NC(=O)[C@@H](CC(C)C)NC)C(=O)N[C@@H](CC(N)=O)C(=O)N[C@H]5C(=O)N[C@H]3C(=O)N[C@H](C(=O)N[C@H](C(=O)O)c5cc(O)c(CNCP(=O)(O)O)c(O)c5-c5cc3ccc5O)[C@H](O)c3ccc(c(Cl)c3)O4)O[C@H](CO)[C@@H](O)[C@@H]2O)O[C@@H](C)C1O` (stereo not given in full) [listing 2 of 2 here], for which the MIC90 in series [7] is 8 µg/mL (≈ 4.52 µM); in series [8], 8 ng/mL (≈ 0.00452 µM); in series [9], 1 µg/mL (≈ 0.565 µM). The compound also registered an MIC in series [1] of 2 µg/mL (≈ 1.13 µM).

In the case of `CN[C@H]1C(=O)N[C@@H]2Cc3ccc(cc3)Oc3cc4cc(c3O[C@@H]3O[C@H](C(=O)O)[C@@H](O)[C@H](O)[C@H]3NC(=O)CCCCCCCCC(C)C)Oc3ccc(cc3Cl)[C@@H](O)[C@@H]3NC(=O)[C@H](NC(=O)[C@@H]4NC(=O)[C@@H](NC2=O)c2cc(cc(O)c2Cl)Oc2cc1ccc2O)c1ccc(O)c(c1)-c1c(O[C@H]2O[C@H](CO)[C@@H](O)[C@H](O)[C@@H]2O)cc(O)cc1[C@@H](C(=O)NCCCN(C)C)NC3=O` [DALBAVANCIN], the MIC90 in [7] is 128 µg/mL (≈ 70.5 µM); in series [8], 60 ng/mL (≈ 0.033 µM); in [9] it was 0.25 µg/mL (≈ 0.138 µM).

As for `CN[C@H](CC(C)C)C(=O)N[C@H]1C(=O)N[C@@H](CC(N)=O)C(=O)N[C@H]2C(=O)N[C@H]3C(=O)N[C@H](C(=O)N[C@H](C(=O)O)c4cc(O)cc(O)c4-c4cc3ccc4O)[C@H](O[C@H]3C[C@](C)(N)[C@@H](O)[C@H](C)O3)c3ccc(c(Cl)c3)Oc3cc2cc(c3O[C@@H]2O[C@H](CO)[C@@H](O)[C@H](O)[C@H]2O[C@H]2C[C@](C)(NCc3ccc(-c4ccc(Cl)cc4)cc3)[C@@H](O)[C@H](C)O2)Oc2ccc(cc2Cl)[C@H]1O` [ORITAVANCIN], the MIC90 in [7] was found to be 4 µg/mL (≈ 2.23 µM); in [8] it was 8 ng/mL (≈ 0.00446 µM); in series [9] it was 1 µg/mL (≈ 0.558 µM). The same compound gave a minimum inhibitory concentration (MIC) in series [1] of 0.5 µg/mL (≈ 0.279 µM).

Turning to `CN[C@H](CC(C)C)C(=O)N[C@H]1C(=O)N[C@@H](CC(N)=O)C(=O)N[C@H]2C(=O)N[C@H]3C(=O)N[C@H](C(=O)N[C@H](C(=O)O)c4cc(O)cc(O)c4-c4cc3ccc4O)[C@H](O)c3ccc(c(Cl)c3)Oc3cc2cc(c3O[C@@H]2O[C@H](CO)[C@@H](O)[C@H](O)[C@H]2O[C@H]2C[C@](C)(N)[C@H](O)[C@H](C)O2)Oc2ccc(cc2Cl)[C@H]1O` [VANCOMYCIN], the results for the MIC90 in series [7], in [8] and in [9] were 4 µg/mL (≈ 2.76 µM), 8 ng/mL (≈ 0.00552 µM) and 1 µg/mL (≈ 0.69 µM), respectively.
